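In this assay, cells in 96-well plates receive the compound at five concentrations for 48 hours. Endpoints are linearly interpolated between the surrounding concentrations. GI50 is the concentration that inhibits growth by half.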 Activity calls are given as the source filed them. Rule as the data show it: active = GI50 up to about 1.1 µM and inactive = higher.
How the values were obtained:
Test in all cases: NCI anticancer screen, dose series, 48 h
EKVX = tested on: EKVX
COLO 205 = tested on: COLO 205
MOLT-4 = tested on: MOLT-4
SK-OV-3 = tested on: SK-OV-3
HOP-62 = tested on: HOP-62
SK-MEL-2 = tested on: SK-MEL-2
UACC-257 = tested on: UACC-257
A549 = tested on: A549
OVCAR-8 = tested on: OVCAR-8
OVCAR-4 = tested on: OVCAR-4
BT-549 = tested on: BT-549
CCRF-CEM = tested on: CCRF-CEM
HL-60 = tested on: HL-60
RPMI-8226 = tested on: RPMI-8226
MDA-N = tested on: MDA-N
HCT-116 = tested on: HCT-116
SF-268 = tested on: SF-268
SR = tested on: SR
SK-MEL-28 = tested on: SK-MEL-28

| SMILES | GI50 (EKVX) | GI50 (COLO 205) | GI50 (MOLT-4) | GI50 (SK-OV-3) | GI50 (HOP-62) | GI50 (SK-MEL-2) | GI50 (UACC-257) | GI50 (A549) | GI50 (OVCAR-8) | GI50 (OVCAR-4) | GI50 (BT-549) | GI50 (CCRF-CEM) | GI50 (HL-60) | GI50 (RPMI-8226) | GI50 (MDA-N) | GI50 (HCT-116) | GI50 (SF-268) | GI50 (SR) | GI50 (SK-MEL-28) |
| --- | --- | --- | --- | --- | --- | --- | --- | --- | --- | --- | --- | --- | --- | --- | --- | --- | --- | --- | --- |
| O=C(O)c1ccc(C=C2Sc3ccccc3S2)cc1 | 45 µM (inactive) | 92.7 µM (inactive) | 42.4 µM (inactive) | 86.9 µM (inactive) | 81.5 µM (inactive) | 29.4 µM (inactive) | 54.5 µM (inactive) | 43.2 µM (inactive) | > 100 µM (inactive) | 55.3 µM (inactive) | 62.7 µM (inactive) | 55.5 µM (inactive) | 35 µM (inactive) | 63.7 µM (inactive) | 29 µM (inactive) | 48.1 µM (inactive) | 52.6 µM (inactive) |  |  |
| CN(/N=C/c1ccnc2ccccc12)c1ccc(Cl)cc1[N+](=O)[O-] | 12.2 µM (inactive) | > 100 µM (inactive) | 45.3 µM (inactive) | > 100 µM (inactive) | 31.8 µM (inactive) | > 100 µM (inactive) | 9.59 µM (inactive) | > 100 µM (inactive) | 85.5 µM (inactive) | 4.92 µM (inactive) | 6.95 µM (inactive) | 50 µM (inactive) | > 100 µM (inactive) |  | > 100 µM (inactive) | > 100 µM (inactive) | 80 µM (inactive) | 2.64 µM (inactive) |  |
| CO/N=C(\C(=O)Nc1cncs1)c1csc(N)n1 | > 10 µM (inactive) | > 10 µM (inactive) | > 10 µM (inactive) | > 10 µM (inactive) | > 10 µM (inactive) |  | > 10 µM (inactive) | > 10 µM (inactive) | > 10 µM (inactive) | > 10 µM (inactive) | > 10 µM (inactive) | > 10 µM (inactive) |  | 6.27 µM (inactive) | > 10 µM (inactive) | > 10 µM (inactive) | > 10 µM (inactive) | > 10 µM (inactive) | > 10 µM (inactive) |
| N#CC(C#N)=C1CCCCc2ccc([N+](=O)[O-])cc21 | 46.6 µM (inactive) | > 100 µM (inactive) | 41.8 µM (inactive) | > 100 µM (inactive) | > 100 µM (inactive) | > 100 µM (inactive) | > 100 µM (inactive) | > 100 µM (inactive) | > 100 µM (inactive) | > 100 µM (inactive) | > 100 µM (inactive) | 40.5 µM (inactive) | 29 µM (inactive) | 31.2 µM (inactive) | 51.6 µM (inactive) | 24.3 µM (inactive) | > 100 µM (inactive) |  | > 100 µM (inactive) |
| CC1(C)C2CCC(CN)(C2)C1N (stereo unspecified) | > 100 µM (inactive) | > 100 µM (inactive) | > 100 µM (inactive) | > 100 µM (inactive) | > 100 µM (inactive) | > 100 µM (inactive) | 14.8 µM (inactive) | > 100 µM (inactive) | > 100 µM (inactive) | > 100 µM (inactive) | > 100 µM (inactive) | > 100 µM (inactive) | > 100 µM (inactive) | > 100 µM (inactive) | > 100 µM (inactive) | > 100 µM (inactive) | > 100 µM (inactive) |  | > 100 µM (inactive) |
| CC(C)(C)OC(=O)N/C(C=O)=C\C1CCCCC1 | 17.2 µM (inactive) | 19.2 µM (inactive) | 14.8 µM (inactive) | 30 µM (inactive) | 21 µM (inactive) | 24.8 µM (inactive) | 20.4 µM (inactive) | > 100 µM (inactive) | 16.3 µM (inactive) | 23.1 µM (inactive) | 25.2 µM (inactive) | 29.6 µM (inactive) | 25.4 µM (inactive) |  | 18.5 µM (inactive) | 16.3 µM (inactive) | 17.4 µM (inactive) | 17.3 µM (inactive) | 46.6 µM (inactive) |
| CC(=O)c1ccc(/N=N/N2CCCC2)cc1 | > 100 µM (inactive) | > 100 µM (inactive) | > 100 µM (inactive) | > 100 µM (inactive) | > 100 µM (inactive) | > 100 µM (inactive) | > 100 µM (inactive) |  | > 100 µM (inactive) | > 100 µM (inactive) | > 100 µM (inactive) | > 100 µM (inactive) | 29.5 µM (inactive) |  | > 100 µM (inactive) | > 100 µM (inactive) | > 100 µM (inactive) | > 100 µM (inactive) |  |
| COc1cc2c(cc1OC)-c1[nH]c3ccc(C#N)cc3c1CC(=O)N2 | 22.2 µM (inactive) | 0.463 µM (active) | 2.65 µM (inactive) | > 100 µM (inactive) | 3.86 µM (inactive) |  | > 52 µM (inactive) | 5.26 µM (inactive) | 4.2 µM (inactive) | > 30.1 µM (inactive) | 10.5 µM (inactive) | 1.56 µM (inactive) | 3.07 µM (inactive) |  | 2.48 µM (inactive) |  | 1.72 µM (inactive) |  | > 26.3 µM (inactive) |
